In paper doi:10.64898/2026.03.17.711623, “Polypharmacology is an enduring and nearly universal property of kinase inhibitors” (bioRxiv, 2026):

Molecular target: T1, YES (Homo sapiens, UniProt P07947)
T1 construct: gene YES1
T1 sequence (P07947 whole entry): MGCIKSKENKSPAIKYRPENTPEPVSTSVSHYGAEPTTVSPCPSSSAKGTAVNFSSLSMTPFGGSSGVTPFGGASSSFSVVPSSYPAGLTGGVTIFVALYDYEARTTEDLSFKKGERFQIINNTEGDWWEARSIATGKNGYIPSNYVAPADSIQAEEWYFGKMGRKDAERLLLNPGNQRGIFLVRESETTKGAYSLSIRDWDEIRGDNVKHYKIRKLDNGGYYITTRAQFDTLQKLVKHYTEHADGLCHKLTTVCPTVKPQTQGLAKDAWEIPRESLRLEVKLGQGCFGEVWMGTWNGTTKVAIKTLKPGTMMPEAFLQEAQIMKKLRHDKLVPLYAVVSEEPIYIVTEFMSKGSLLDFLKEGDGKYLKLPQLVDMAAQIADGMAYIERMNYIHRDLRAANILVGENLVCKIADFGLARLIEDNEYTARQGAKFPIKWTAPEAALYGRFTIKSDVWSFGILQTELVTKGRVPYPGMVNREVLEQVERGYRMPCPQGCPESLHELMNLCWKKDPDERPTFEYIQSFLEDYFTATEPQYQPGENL

Kd: 423 nM
Structure (SMILES): Cc1cc(C(=O)Nc2cc(Oc3ccc4nc(NC(=O)C5CC5)cn4n3)ccc2C)n(C)n1 [HMSL12071, TAK-593]
